Consider 4 compounds from patent US4690949A, “Therapeutic drug for dementia” (priority 1985, dated 1987).

In series [1] the test system is patients with dementia. As to the kind of experiment: Side effects in clinical study. It is filed as in vivo. The protocol:
(§1) Administration schedule of L-Threo-DOPS and schedule of clinical evaluation are as follows: [drawing 3]
(§2) Threo-DOPS were administered as follows; immediately after meals at 8:00, 12:00 and 17:00. Various psychological tests were performed at 10:00. The evaluations were performed on the day before and after administration of Threo-DOPS.

Series [2] can be described thus: Acute toxicity LD50 in mice. The settings on record: mouse, in vivo.
Series [3] relates to patients with dementia. As to the kind of experiment: Overall clinical evaluation of effectiveness in dementia. It is filed as in vivo.
Description: (§3) We have used following various tests: WAIS, Hasegawa's scale for intelligence, Osaka University tests for activity of daily life as well as mental functions, and records of psychological states. Furthermore, free association of letters and categories, paired memory test, Bourdon's test could safely be used to evaluate intelligence of demented patients, even with handicaps in hands or legs. We have done each test 4 times per patient at each point to evaluate the patient's mental state and thus this made us possible to get satisfactory statistical analysis.
Dementia could be classified into various clinical types according to the ethiology; such as Alzheimer's disease (AZ), senile dementia of Alzheimer type (SDAT), dementia due to the cerebral vascular diseases. We included these various types of dementia in this study.
as §1, §2
Evaluations were made as described below or by the methods used commonly.

The subject of the next series is parkinsonian patients. As to the kind of experiment: Clinical studies on parkinsonian patients. It is filed as in vivo.
In series [4] the test system is aromatic L-amino acid decarboxylase. The settings on record: cited from earlier work.
The subject of another series is decarboxylase. The settings on record: compared with L-DOPA; cited from earlier work.
Series [5] has as its system patients with dementia. The series is described as follows: Hasegawa's scale for intelligence. It is filed as in vivo. Details: key to Hasegawa (change after treatment): improved; .dwnarw.: aggravated; →: unchanged. The following applies: for Hasegawa (change after treatment): 10 percent change from pretreatment baseline score.
Description: as §3, §1, §2
An increase or decrease of 10 percent from the pretreatment baseline score was regarded as "improved" or "aggravated".

In series [6] the test system is patients with dementia. As to the kind of experiment: N test (N mental function test). It is filed as in vivo. Also on record: key to N test (change after treatment): improved; .dwnarw.: aggravated; →: unchanged.
Description: as §3, §1, §2
Inoue, O.: Medical Journal of the Osaka University 26, 375-394 (1974)

In series [7] the test system is patients with dementia. As to the kind of experiment: Bourdon's test (Bourdon's delection test). It is filed as in vivo. Details: key to Bourdon's test (change after treatment): improved; .dwnarw.: aggravated; →: unchanged.
Description: as §3, §1, §2
3. Bourdon's delection test:
Matsumoto K and Samezima K: Introduction to Clinical Psychology Tests, Igaku Shuppan Sha (Tokyo), 1977, pp. 83-87
In this test, the original method was modified by enlarging the chart to make it easier for patients to see and conducting 4 test runs starting at different lines to investigate how far the task could be done in 30 seconds.

The test system of series [8] is patients with dementia. The series is described as follows: Related words paired memory test. Details: key to Related words paired memory test (change after treatment): improved; .dwnarw.: aggravated; →: unchanged. It is filed as in vivo.
Description: as §3, §1, §2
This retention test using 10 pairs of related words was conducted in 4 trials and the results were compared before and after the treatment.

In series [9] the test system is patients with dementia. As to the kind of experiment: Digit symbol test (modified WAIS). It is filed as in vivo.
Description: as §3, §1, §2
The original method of WAIS was partially modified. The test was repeated 4 times and counted time-in seconds which was required to finish one line or checked how far the subject could go along one line in 30 seconds.

For series [10], the system named is patients with dementia. As to the kind of experiment: Free association (letters and categories). It is filed as in vivo. Details: key to Free association, Letter / Free association, Category: improved; .dwnarw.: aggravated; →: unchanged.
Description: as §3, §1
Threo-DOPS were administered as follows; immediately after meals at 8:00, 12:00 and 17:00. Various psychological tests were performed at 10:00. The evaluations were performed on the day before and after administration of Threo-DOPS. […]
In this test, the subject was asked to say what would occur in mind by free association in response to the 4 letters of " " (a), " " (ka), " " (sa) and " " (ha) and the four categories of "fruits" or "vegetables", "flowers or trees", "animals" and "countries of the world" within 90 seconds and the number of words every 30 seconds was counted.

Series [11] concerns patients with dementia. As to the kind of experiment: P300 auditory evoked brain potential. It is filed as in vivo. Also on record: key: +: appeared; -: disappeared. The protocol: as §1, §2
When two kinds of auditory stimuli are given randomly, a positive brain potential (P300) appears with a latency of about 300 msec in normal subjects and this response has been considered to reflect gnostic function. [Sutton, S. et al.: Science 150, 1187-1188 (1965)].
Using the method of Goodin, D. S. et al., the present inventors asked the subject to hear sounds of 1000 Hz and also 2000 Hz randomly given at intervals of about 1 second and to count the sounds of 2000 Hz which appeared 15% of the total number of sounds which were 400. The evoked potentials were averaged and totalled for each 1000 Hz and 2000 Hz stimulations and the latency and the amplitude of P300 were measured.

Series [12] is described as follows: Clinical comparison of L-isomer and DL-form activity. It is filed as in vivo.
[13] abbreviates: Case 7, left thalamic hemorrhage (case report).
The mark [14] stands for this setting: Case 9, cerebral infarction (case report).
The mark [15] stands for this setting: Case 1, Alzheimer's disease (case report).

SMILES strings stand for the structures. “Also recorded” adds a separate entry of the source. Where only a bound is given, the exact number is not on record here.

As for `N[C@H](C(=O)O)[C@H](O)c1ccc(O)c(O)c1` (relative stereo) [DL-Threo-DOPS], in the series on patients with dementia [1] (human, in vivo), the “Side effects (clinically)” value is listed as “almost no side effect has been observed”. The LD50 – broadly, the dose expected to kill half of the subjects tested – in series [2] (ip) is roughly 10000 mg/kg; in series [2] (po), no less than 10000 mg/kg.

As for `N[C@H](C(=O)O)[C@H](O)c1ccc(O)c(O)c1` (relative stereo) [Threo-DOPS, threo-3,4-dihydroxyphenylserine], the “Effect on symptoms of dementia” value in the series on patients with dementia [3] (summary statement) is “improving effect on some symptoms of dementia”. Also, the Side effects entry with patients with dementia [1] (human, in vivo) was “without any appreciable side effects”. Further, the “Effectiveness as a NE precursor” value in the series on parkinsonian patients was “effectiveness of Threo-DOPS as a NE precursor”. Moreover, in series [4] (in the living body), the “Conversion to norepinephrine (NE)” value was “decarboxylated by an action of an aromatic L-amino acid decarboxylase existing in the living body and converted into norepinephrine (NE); also recorded: gradually converted to NE in the living body”. Besides, the “Rate of decarboxylation relative to L-DOPA” value in [4] (previous study of the present applicants) is recorded as “considerably smaller than that of L-DOPA”. Further, the “Effectiveness of combined use of DCI” value in the series with decarboxylase is “not so effective as that for L-DOPA”.

`N[C@@H](Cc1ccc(O)c(O)c1)C(=O)O` [L-DOPA, reference compound]: in series [4] (in the living body), the Decarboxylation to dopamine result is listed as “decarboxylated to the corresponding catecholamine, dopamine”.

In the case of `N[C@H](C(=O)O)[C@H](O)c1ccc(O)c(O)c1` [L-Threo-DOPS], the “Hasegawa (change after treatment)” value is “.dwnarw” in the series with patients with dementia [5] (Case 3, CI) and “→” with patients with dementia [5] (Case 6, AZ/CI, person). Besides, the “Hasegawa's scale” value with patients with dementia [5] (setting [13]) was “Improvements were obtained”; in the series on patients with dementia [5] (setting [14]), “Improvements were found”. Moreover, the “N test (change after treatment)” value was “→” in the series with patients with dementia [6] (Case 5, CI) and “→” in the series on patients with dementia [6] (Case 6, AZ/CI, person). The “N mental function test” value is recorded as “Improvements were obtained” in the series on patients with dementia [6] (setting [13]) and “Improvements were found” in the series with patients with dementia [6] (setting [14]). For the same compound, the “Bourdon's test (change after treatment)” value is given as “→” in the series with patients with dementia [7] (Case 1, AZ); “→” with patients with dementia [7] (Case 2, AZ); “→” in the series on patients with dementia [7] (Case 3, CI); “→” with patients with dementia [7] (Case 6, AZ/CI, person); “→” with patients with dementia [7] (Case 9, CI). In the series on patients with dementia [7] (Case 4, CI), the “Bourdon's test, statistics” value is listed as “** (P<0.02)”. Also, the “Related words paired memory test, statistics” value was “*** (P<0.01)” in the series on patients with dementia [8] (Case 1, AZ); “*** (P<0.01)” in the series with patients with dementia [8] (Case 2, AZ); “* (P<0.05)” in the series with patients with dementia [8] (Case 5, CI); “** (P<0.02)” in the series on patients with dementia [8] (Case 9, CI). Further, the “Related words paired memory test” value with patients with dementia [8] (setting [15]) and in the series on patients with dementia [8] (setting [14]) was “Improvements were found” each time. The “Related words paired memory test (change after treatment)” value in the series with patients with dementia [8] (Case 4, CI) is given as “→”; with patients with dementia [8] (Case 5, CI) it was “.uparw”; in the series with patients with dementia [8] (Case 6, AZ/CI, person), “→”. For the same compound, the “Digit symbol test, statistics” value with patients with dementia [9] (Case 1, AZ) is “* (P<0.05)”. Further, the Digit symbol test entry in the series on patients with dementia [9] (setting [15]) is “Improvements were found”. In addition, the “Free association, Category” value is on record as “→” in the series with patients with dementia [10] (Case 2, AZ); “→” in the series on patients with dementia [10] (Case 3, CI); “→” in the series on patients with dementia [10] (Case 4, CI); “→” in the series on patients with dementia [10] (Case 5, CI); “→” in the series with patients with dementia [10] (Case 6, AZ/CI, person); “→” in the series on patients with dementia [10] (Case 9, CI). Also, the “Free association, Letter” value in the series on patients with dementia [10] (Case 2, AZ) is given as “→”; with patients with dementia [10] (Case 4, CI) it was “→”; in the series with patients with dementia [10] (Case 5, CI), “→”; in the series with patients with dementia [10] (Case 6, AZ/CI, person) it was “→”; with patients with dementia [10] (Case 9, CI), “→”. Moreover, the “Free association of things” value in the series with patients with dementia [10] (setting [13]) is on record as “Improvements were obtained”. Moreover, the P300 result is on record as “+” in the series with patients with dementia [11] (Case 2, AZ); “-” in the series on patients with dementia [11] (Case 3, CI); “+” with patients with dementia [11] (Case 4, CI); “-” in the series on patients with dementia [11] (Case 5, CI); “-” with patients with dementia [11] (Case 6, AZ/CI, person); “could not be observed before the treatment, appeared after the treatment” in the series with patients with dementia [11] (setting [13]). Also, in the series on patients with dementia [11] (Case 9, CI), the P300 entry is “-”. The Overall evaluation entry in the series with patients with dementia [3] (Case 1, Alzheimer's disease) is “moderately improved”. For the same compound, the Global evaluation result in the series on patients with dementia [3] (Case 7, left thalamic hemorrhage) is “markedly improved”; in the series with patients with dementia [3] (Case 9, cerebral infarction), “moderately improved”. In the series on patients with dementia [3] (Cases 1 to 9, Table 1), the “Evaluation parameters showing aggravation” value was “only a few evaluation parameters showed aggravation”. Further, the “Subjects showing improvements in one or more tests” value in the series on patients with dementia [3] (Cases 1 to 9, Table 1) is “all subjects but Case 6 showed improvements in one or more tests”. Also, the “Overall evaluation: efficacy against symptoms of patients with dementia” value in the series on patients with dementia [3] (as a whole) is reported as “had efficacy against symptoms of patients with dementia”. The Side effects result with patients with dementia [1] (Case 9, cerebral infarction) is reported as “No remarkable side effects were found”. For the same compound, the “Side effects (clinically)” value in the series with patients with dementia [1] (human, in vivo) was “almost no side effect has been observed”. The “Effect of L-isomer at half the amount of the DL-mixture” value in series [12] (administered in half the amount of the DL-mixture) was “nearly the same effect as the DL-mixture”. Moreover, in series [12] (clinical study), the “Activity of L-isomer relative to DL-form” value was “twice as active as the DL-form”. In addition, the LD50 in series [2] (ip) is roughly 10000 mg/kg; in [2] (po), no less than 10000 mg/kg.
